Results taken from US20260216134A1, “CHARGED PI-CONJUGATED MOLECULES FOR THE TREATMENT OF MICROBIAL INFECTIONS” (priority 2023, published 2026).

Assays:
MRSA USA300 = experiment: Therapeutic index calculation (IC50 of mammalian cell lines / MIC); settings: ratio of average IC50 for A549 and HEK293 to MIC in MRSA USA300
Description: (§1) The biocompatibility of charged pi-conjugated compounds with mammalian cell lines was evaluated by studying the effects of different charged pi-conjugated compound concentrations on the viability of two mammalian cell lines: A549 (epithelial-like lung cells) and HEK293 (epithelial-like kidney cells). […] Dose-response curves were used to determine IC50 values, that is, the concentration of charged pi-conjugated compound needed to inhibit cell viability by 50%. […] The MIC of MRSA USA300 was used to calculate the therapeutic index. MRSA USA300 is a major contributor to community-associated MRSA infections, including skin and soft tissue infections, bacteraemia, endocarditis, bone and joint infections and nosocomial infections. […]
(§2) The biocompatibility of charged pi-conjugated compounds with mammalian cell lines was assessed by determining their impact on the mitochondrial activity of human alveolar basal epithelial adenocarcinoma cells (A549) and human embryonic kidney cells (HEK293T) cells, using the Presto Blue assay according to the manufacturer's protocol. […] After 8 h, Presto Blue cell viability reagent (Thermo Fisher Scientific, Waltham, MA, USA) was added to the cells, and after 2 h of incubation, fluorescence was measured using a microplate reader (BioTek Instruments Inc., Winooski, VT, USA). […] The therapeutic index was calculated from the ratio between IC50 and the MIC.

[1] = system: HEK293 (epithelial-like kidney cells); experiment: Presto Blue viability assay, HEK293; assay type: cell-based, human; settings: HEK293, Presto Blue, 8 h treatment; read-out: IC50 (concentration needed to inhibit cell viability by 50%)
Description: as §1, §2

[2] = system: A375 cancer cells (melanoma); experiment: Crystal violet cytotoxicity test in A375 cells without light activation; assay type: cell-based, human
Description: The inhibitory concentration of charged pi-conjugated compounds needed to inhibit the cell growth by 50% (toxicity IC50).
Most of the charged pi-conjugated compounds are aminocyanines which are functionalized with alkyl amine group. The charged pi-conjugated compounds were added to cell cultures of A375 cancer cells (human melanoma) and their cytotoxicity was quantified by the crystal violet test and/or clonogenic assays for cell viability. […] The longer the exposure the most cytotoxic the charged pi-conjugated compounds are towards A375 cells. […] The same behavior is observed: the longer the exposure, the more cytotoxic. All molecules presented here are aminocyanines except GL-261-2 which is a carboxyl-cyanine. […] This was the first time a therapeutic window of concentration that can be tuned to selectively kill cancer and/or protect cells was suspected. In finding this therapeutic window concentration and time of exposure are important variables that should be fine tuned.
Based on the finding described above, a larger set of charged pi-conjugated compounds was evaluated for cytotoxicity against A375 cancer cells as shown in FIG. 25 and FIG. 26.
The IC50 is the concentration needed to inhibit the cell viability by 50%. These molecules in FIG. 25 and FIG. 26 were evaluated by crystal violet assay and using 2 days of exposure.

SMILES: C[N+]1=C(/C=C/C2=CC(=C/C=C3/N(CCCCCC(=O)NCCCCCCN)c4ccc5ccccc5c4C3(C)C)/CCC2)C(C)(C)c2c1ccc1ccccc21.Cl.[Cl-] [Cy7.5-amine, Cyanine 7.5-amine]
- therapeutic index (MRSA USA300): 1.3
- IC50 [1]: 6.3 µM
- IC50 [2]: 0.5 µM
- cytotoxicity at short exposure [2]: safe and showed low cytotoxicity
